Data as given in US5608095A, “Alkyl-4-silyl-phenols and esters thereof as antiatherosclerotic agents” (Hoechst Marion Roussel, Inc., priority 1996, dated 1997).
Read-outs that look alike come from different tables or passages of the source.

Assays:
[1] = Clinical chemistries in serum of rats; type: in vivo, male Sprague-Dawley rats; conditions: for response vs control in vivo at 0.3 %: po, 96 h
Text: (§1) A typical experiment consisted of 4-6 groups of rats (N=5 per group) with 1 group being a control which received no MDL compound and the other groups being treated with 0.3% MDL compound. Some of the compounds were either repeated at 0.3% or evaluated again at the lower dose of 0.1%. Male Sprague-Dawley rats, 50-100 g, (Harlan Laboratories, Indianapolis, Ind.) were housed in groups of 5, fed ad libitum water and Purina Rodent chow (#5002) with or without MDL compound as a dietary admixture for 4 days. Dietary admixtures (0.3%) were made by mixing 1.2 grams of an MDL compound with 400 grams of Purina rodent chow (#5002). The MDL compound was mixed with approximately 50 grams of food using a mortar and pestle. This was added to the remainder of the food and mixed for 3 hours on a rotary mixer. In the morning of day 5, non-fasted rats were anesthetized with carbon dioxide, and blood was collected by cardiac puncture. Rats were sacrificed by cervical dislocation. Body weights and liver weights were recorded in grams. Food consumption was recorded as grams.cndot.day^-1.cndot.rat^-1. Deaths were recorded as mortality. Aliquots of fresh serum were used for clinical chemistries, thiobarbituric acid reactive substances (TBARS) and conjugated diene measurements. Aliquots of serum (~0.5mL) and whole livers were frozen at -20° C. for compound and metabolite concentration determination at a later time.
Blood was allowed to clot at room temperature for 30 minutes. Serum was obtained after centrifugation for 10 min at 4° C. at 3000 rpm in a Beckman J-6M/E centrifuge with a JS-4.2 rotor. Fresh serum was analyzed by a COBAS MIRA S autoanalyzer (Roche Diagnostics) using Roche diagnostic reagents for the following clinical chemistry measurements: alkaline phosphatase (ALP, kit #44553), alanine transaminase (ALT, kit #42375), aspartate aminotransferase (AST, kit #42381), total cholesterol (CHOL, kit #44334), triglyceride (TG, kit #44120), and glucose (GLU, kit #44558). ALP, ALT, and AST were calculated as units/L. Cholesterol, triglycerides, and glucose were calculated as mg/dL.

[2] = system: oxidation of serum lipids; experiment: TBARS assay, rat serum; type: in vivo, male Sprague-Dawley rats; conditions: po, 96 h, read-out: TBARS, percent of control
Text: as §1
In this assay the oxidation of serum lipids is initiated with CuSO4, resulting in the formation of aldehydes, such as malondialdehyde (MDA). Upon incubation with thiobarbituric acid, the absorbance of the aldehydes can be detected at 530-540 nm. As stated in the previous example, TBARS values which are lower than control serum values indicate the relative ability of a test compound to inhibit the oxidation of lipids in a sample. TBARS were measured as follows: 100 μL of serum were mixed with 400 μL of a 5 mmol CuSO4 solution and incubated at 37° C. for 3 hr. The reactions were stopped by addition of 1.0 mL of 20% trichloroacetic acid. Then 1.0 mL of 0.67% thiobarbituric acid in 0.05N sodium hydroxide was added, mixed, and the samples incubated for 30 min at 90° C. Samples were centrifuged briefly to pellet undissolved material, and the supernatants were transferred to a 96-well microtiter plate. Absorbances were measured at 540 nm using a Biotek model EL311 microplate reader. The nmoles of MDA produced were calculated from a standard curve of 0 to 10 nmoles of MDA prepared from malonaldehyde bis(dimethylacetal). Serum samples from treated rats were compared to serum samples from control rats that received no MDL compound.

[3] = Animal parameters (food, body weight, liver weight, mortality) in rats; type: in vivo, male Sprague-Dawley rats; conditions: diet 0.3%, 4 days; for mortality at 96 h: in vivo, po, read-out: mortality (deaths per group); for mortality at 96 h / body wt., percent of control / lw/bw (liver weight/body weight), percent of control: rat
Text: as §1

[4] = HPLC quantitation of compound and metabolite concentration in rat serum and liver; type: in vivo, male Sprague-Dawley rats; conditions: po, diet 0.3%, 4 days
Text: as §1
(§2) Serum and liver concentrations of parent compound and the metabolites, bisphenol and diphenoquinone, were determined by reverse phase HPLC using a Waters 990 Powerline system. Livers (1 gram samples) were homogenized with 5.0 mL PBS, pH 7.4, using a Polytron tissue homogenizer at setting 5 for 20-30 seconds. Serum or liver homogenates were extracted as follows: 100μL of either serum or homogenate were added to 2.0 mL diethyl ether:ethanol (3:1) while vortexing the tube. The sample tubes were capped and centrifuged for 10 min at 5° C. at 3500 rpm in a Beckman GPKR centrifuge with a GH 3.7 rotor. The supernatants were transferred to clean tubes and dried under N2. Samples were reconstituted with 200 μL of acetonitrile:hexane:0.1M ammonium acetate (90:6.5:3.5, by vol.). Then, 100 μL were injected onto a Waters Deltapak C18-300 Å column, and eluted with an 83% acetonitrile:17% water mobile phase at a flow rate of 1.5 mL/min. Absorbances at the wavelengths of 240, 254, and 420 nm were recorded. Compound concentrations were calculated from known quantities of authentic parent compounds after correction for recovery; the range of recovery from spiked samples was 40 to 100%. The lowest detectable limit for this class of compounds was ~0.5 μg/mL. Concentrations were calculated as μg/mL. Concentrations were calculated as μg/mL of serum and μg/g of liver.

[5] = system: serum cholesterol, LDL, HDL, triglycerides; experiment: Serum lipids and lipoprotein cholesterol in cholesterol-fed female New Zealand White rabbits; type: in vivo; conditions: Oryctolagus cuniculus, po, 168 h, rabbit serum, diet 0.4%, 7 days
Procedure: (§3) Five independent experiments were performed in the following manner. […] Female New Zealand White rabbits (Hazelton, ~2.0-2.3 kg) were fed 0.2% cholesterol enriched rabbit chow (Purina #5322) with or without 0.4% MDL compound (except, MDL 108,804 at 0.26% and MDL 103,491 repeated at 0.6%). The MDL compounds were solubilized in 100% ethanol. MDL 108,208 was not soluble in 100% ethanol, but it was soluble in diethyl ether:ethanol (3:2 by volume). The chow was sprayed with the MDL mixtures and allowed to dry overnight in a chemical fume hood. Control chow was sprayed with ethanol. Rabbits were fed 100 grams food per day for 7 days (0.6% MDL 103,491 were fed for 14 days); water was available ad libitum. On day 7, rabbits (fasted overnight) were bled (~2 mL) from marginal ear vein; 0.6% MDL 103,491 treated rabbits were tested on day 14. They were euthanized by carbon dioxide overdose. The total body and liver weights were recorded in grams. Food consumption was recorded as grams.cndot.day^-1 .cndot.rabbit^-1. Aliquots of fresh serum were used for clinical chemistries, lipoprotein cholesterol determination, thiobarbituric acid reactive substances (TBARS) and compound and metabolite concentrations in serum. Livers (~5 gram aliquots) were frozen at -20° C. for compound and metabolite concentration determination at a later time.
Blood was allowed to clot at room temperature for 30 minutes. Serum was obtained after centrifugation for 10 min at 5° C. at 3000 rpm in a Beckman GPKR centrifuge with a GH rotor. Fresh serum was analyzed by a COBAS MIRA autoanalyzer (Roche Diagnostics) using Roche diagnostic reagents for total cholesterol (CHOL, kit #44334) and triglyceride (TG, kit #44120). Cholesterol and triglycerides were calculated as mg/dL.
Lipoprotein fractions (very low density lipoprotein, VLDL, low density lipoprotein, LDL and high density lipoprotein, HDL) were separated on a Sepharose 6HR column (1×30 cm, Pharmacia) attached to a Waters Powerline HPLC system. Fifty μL of serum were injected onto the column and eluted with phosphate buffered saline, pH 7.4, at a flow rate of 0.5 mL/min. Cholesterol reagent (Roche Diagnostics, kit #44334, diluted with 20 mL water and then with 20 mL of 0.9% saline) was added at 0.2 mL/min to the post column eluant and incubated in a knitted PFTE Kratos reaction coil (Applied Biosystems) at 37° C. for 5 min. Absorbance was measured at 500 nm. The lipoprotein subfractions were quantitated as follows: [formula]

[6] = system: oxidation of serum lipids; experiment: TBARS assay, serum of cholesterol-fed rabbits; type: in vivo, female New Zealand White rabbits; conditions: Oryctolagus cuniculus, po, 168 h; rabbit serum, diet 0.4%, 7 days; read-out: TBARS, percent of control
Procedure: as §3
TBARS are a qualitative indication of the oxidation of lipids in a sample. In this assay the oxidation of serum lipids is initiated with CuSO4, resulting in the formation of aldehydes, such as malondialdehyde (MDA). Upon incubation with thiobarbituric acid, the absorbance of the aldehydes can be detected at 530-540 nm. TBARS values which are lower than control serum values indicate the relative ability of a compound to inhibit the oxidation. TBARS were measured as follows: 50 μL of serum were mixed with 50 μL of 0.9% saline and 400 μL of a 5 mM CuSO4 solution and incubated at 37° C. for 5 hr. The reactions were stopped by addition of 1.0 mL of 20% trichloroacetic acid. Then 1.0 mL of 0.67% thiobarbituric acid in 0.05N sodium hydroxide was added, mixed, and the samples incubated for 30 min at 90° C. Samples were centrifuged briefly to pellet undissolved material, and the supernatants were transferred to a 96-well microtiter plate. Absorbances were measured at 540 nm using a Biotek model EL311 microplate reader. The nmoles of MDA produced were calculated from a standard curve of 0 to 10 nmoles of MDA prepared from malonaldehyde bis(dimethylacetal). Serum samples from treated rabbits were compared to serum samples from control rabbits that received no MDL compound.

[7] = Food consumption, body and liver weight in cholesterol-fed rabbits; type: in vivo, female New Zealand White rabbits; conditions: diet 0.4%, 7 days
Procedure: as §3

[8] = HPLC quantitation of compound and metabolite concentration in rabbit serum and liver; type: in vivo, female New Zealand White rabbits; conditions: diet 0.4%, 7 days
Procedure: as §3
as §2, with “of parent compounds and the” for “of parent compound and the”, “Livers (1 gram) were homogenized” for “Livers (1 gram samples) were homogenized”, “as follows: 100 μL of either” for “as follows: 100μL of either”, “1.5 mL/min. Absrobances at the” for “1.5 mL/min. Absorbances at the”, “calculated as μg/mL of” for “calculated as μg/mL. Concentrations were calculated as μg/mL of”

[9] = Rattus norvegicus, read-out: CHOL (total cholesterol), percent of control
[10] = rat liver, read-out: Liver Parent = parent compound concentration
[11] = rat serum, read-out: Serum Parent = parent compound concentration

Structure (SMILES) | response vs control in vivo at 0.3 % [1, 9] [%] | ALP (alkaline phosphatase), percent of control ([1]; rat serum, diet 0.3%, 4 days) [%] | ALT (alanine aminotransferase), percent of control ([1]; rat serum, diet 0.3%, 4 days) [%] | AST (aspartate aminotransferase), percent of control ([1]; rat serum, diet 0.3%, 4 days) [%] | GLUC (glucose), percent of control ([1]; rat serum, diet 0.3%, 4 days) [%] | food (grams eaten per day per rat), percent of control [3] [%] | mortality at 96 h [3] [%] | body wt., percent of control [3] [%] | lw/bw (liver weight/body weight), percent of control [3] [%] | concentration at 96 h [4, 10] [ng/g] | concentration at 96 h [4, 11] [ng/mL] | also measured
CC(C)(C)c1cc(SC[Si](C)(C)c2ccccc2)ccc1O [MDL 104,571, 2-t-Butyl-4-[(dimethylphenylsilyl)methylthio]phenol] | 108 | 103 | 109 | 103 | 96 | 108 | 0 | 97 | 123 | 500 | 1200 | response vs control in vivo at 0.3 % ([1]; rat serum, diet 0.3%, 4 days, read-out: TRIG (triglycerides), percent of control): 119%; response vs control in vivo at 0.3 % ([2]; rat serum, diet 0.3%, 4 days): 58%
CC(C)(C)c1cc(OC[Si](C)(C)c2cccc(C(F)(F)F)c2)cc(C(C)(C)C)c1O [MDL 105,726, 2,6-Di-t-butyl-4-[(dimethyl-3-trifluoromethylphenylsilyl)methyloxy]phenol] | 104 | 118 | 113 | 112 | 105 | 112 | 0 | 105 | 120 | 128000 | 17000 | response vs control in vivo at 0.3 % ([1]; Rattus norvegicus, read-out: TRIG (triglycerides), percent of control): 75%; response vs control in vivo at 0.3 % ([2]; Rattus norvegicus): 48%
CC(C)(C)c1cc(OC[Si](C)(c2ccccc2)c2ccccc2)ccc1O [MDL 107,917, 2-t-butyl-4-[(diphenylmethylsilyl)methyloxy]phenol] | – | – | – | – | – | – | – | – | – | – | – | response vs control in vivo at 0.4 % ([5]; read-out: HDL cholesterol, percent of control): 86%; response vs control in vivo at 0.4 % ([5]; read-out: LDL cholesterol, percent of control): 165%; response vs control in vivo at 0.4 % ([5]; read-out: TRIG (triglycerides), percent of control): 129%; response vs control in vivo at 0.4 % ([5]; read-out: chol tot. (total cholesterol), percent of control): 151%; response vs control in vivo at 0.4 % [6]: 68%; food (grams eaten per day per rabbit), percent of control [7]: 100%; body wt., percent of control ([7]; rabbit): 99%; lw/bw (liver weight/body weight), percent of control ([7]; rabbit): 106%; Liver Parent = parent compound concentration ([8]; rabbit liver): 0 µg/g; Serum Parent = parent compound concentration ([8]; rabbit serum): 0 µg/mL
